Assay results reported in US20020179457A1, “Electrochemical method for high-throughput screening of minute quantities of candidate compounds” (priority 2001, published 2002).

Assays:
acetylcholine esterase = acetylcholine esterase (Homo sapiens, UniProt P22303); assay: electrochemical flow cell assay of inhibition of acetylcholine esterase (esterase/choline oxidase/peroxidase cascade); format: biochemical
Method: An aqueous carrier liquid is prepared in an oxygen-containing atmosphere to comprise the buffer of Example 1 and acetylcholine, the total volume of the liquid being less than 0.1 mL. Two samples are prepared. The first sample contains only the buffered acetylcholine solution; the second sample contains the liquid carrier and 100 pg malathion, an insecticide.
The first sample is introduced into the flow cell through the inlet, and the working electrode is poised at +0.1 V versus the standard calomel electrode. The acetylcholine in the solution is hydrolyzed by the esterase on the electrode, producing choline, which, in turn, combines with dissolved oxygen to form hydrogen peroxide. The hydrogen peroxide is electroreduced to water. An electric current is produced between the electrodes as a result. The current produced provides a baseline against which current produced as a result of enzymatic inhibition is measured.

horseradish peroxidase = horseradish peroxidase (Armoracia rusticana, UniProt P00433); conditions: pH 7
Chain of horseradish peroxidase (P00433 31-338): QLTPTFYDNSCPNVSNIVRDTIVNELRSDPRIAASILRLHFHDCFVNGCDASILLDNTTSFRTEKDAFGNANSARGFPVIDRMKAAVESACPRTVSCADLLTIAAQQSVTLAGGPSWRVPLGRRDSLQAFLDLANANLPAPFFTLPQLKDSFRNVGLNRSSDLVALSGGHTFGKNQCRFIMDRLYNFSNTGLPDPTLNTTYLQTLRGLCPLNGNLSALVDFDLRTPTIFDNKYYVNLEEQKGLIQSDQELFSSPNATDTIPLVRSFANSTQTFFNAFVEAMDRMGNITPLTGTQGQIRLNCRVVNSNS
Method: A system with a total volume of 0.1 mL comprising a flow cell is constructed. The cell comprises a detection chamber having an interior volume of 5 μl, an inlet for directing a stream of liquid into the detection chamber, and an outlet for directing liquid out of the detection chamber. The detection chamber contains a working electrode for assessing the capability of candidate compounds for inhibiting the catalytic activity of horseradish peroxidase, a carbon paste counter electrode, and downstream from the working electrode, near the outlet, a standard calomel reference electrode. The working electrode is formed by co-depositing on a conductive substrate horseradish peroxidase and a redox polymer formed of poly(4-vinyl pyridine) partially reacted with 2-bromoethylamine and partially complexed with [Os(bpy)2Cl]^+/2+ where bpy=2,2′-bipyridine complex of osmium (2+/3+) and poly(4-vinyl pyridine). The horseradish peroxidase and the redox polymer are crosslinked on the substrate by periodate oxidation, whereby aldehyde functions are produced in the oligosaccharides of the peroxidase, and by adding PEGDGE, polyethylene glycol diglycidyl ether.
An aqueous pH 7 phosphate buffer comprises 0.15 M NaCl and 1 mM hydrogen peroxide. Three liquid samples are prepared, each sample 0.1 mL. […]

Chain of acetylcholine esterase (P22303 32-614): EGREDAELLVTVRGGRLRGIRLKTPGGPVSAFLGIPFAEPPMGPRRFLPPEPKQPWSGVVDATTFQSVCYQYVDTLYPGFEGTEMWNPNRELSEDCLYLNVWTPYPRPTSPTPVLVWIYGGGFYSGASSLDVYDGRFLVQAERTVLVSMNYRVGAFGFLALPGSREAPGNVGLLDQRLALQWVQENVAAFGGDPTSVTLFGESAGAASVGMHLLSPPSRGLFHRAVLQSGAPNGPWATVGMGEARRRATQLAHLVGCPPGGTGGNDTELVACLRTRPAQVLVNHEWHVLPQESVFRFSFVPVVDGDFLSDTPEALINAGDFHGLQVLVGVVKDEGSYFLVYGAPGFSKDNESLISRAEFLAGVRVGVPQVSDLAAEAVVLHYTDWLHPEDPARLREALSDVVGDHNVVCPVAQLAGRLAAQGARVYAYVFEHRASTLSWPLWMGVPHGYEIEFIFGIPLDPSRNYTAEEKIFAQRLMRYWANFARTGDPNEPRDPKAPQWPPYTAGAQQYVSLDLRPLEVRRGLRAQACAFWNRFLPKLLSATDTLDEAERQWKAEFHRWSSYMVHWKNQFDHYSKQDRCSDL

SMILES	current passing from one electrode to another, versus baseline (inhibition of catalytic activity of acetylcholine esterase) (acetylcholine esterase)	current passing from one electrode to another, versus baseline (inhibition of catalytic activity of horseradish peroxidase) (horseradish peroxidase)
CCOC(=O)CC(SP(=S)(OC)OC)C(=O)OCC (centres unmarked) [malathion]	decreased	
[N-]=[N+]=[N-].[Na+] [azide, sodium azide]		decreased
